Results from patent US6653258B1 (priority 1987, dated 2003).

Legend:
[1] = tested on: foliar fungal diseases of plants; type: in vivo; design: key to disease control grading, […] (VINE): 4: no disease; 3: trace −5% of disease on untreated plants; key to disease control grading, PUCCINIA RECONDITA (WHEAT) / disease control grading, VENTURIA INAEQUALIS (APPLE) / disease control grading, CERCOSPORA ARACHIDICOLA (PEANUT) / disease control grading, PH[…] (TOMATO) / disease control grading, P[…] (RICE): 4: no disease; 3: trace −5% of disease on untreated plants; 6-25% of disease on untreated plants; 1: 26-59% of disease on untreated plants; 60-100% of disease on untreated plants; conditions: applied to soil (roots) and foliage one or two days before inoculation; for disease control grading, CERCOSPORA ARACHIDICOLA (PEANUT): Cercospora arachidicola on peanut; for disease control grading, P[…] (RICE): P[…] on rice; for disease control grading, PH[…] (TOMATO): Ph[…] on tomato; for disease control grading, PUCCINIA RECONDITA (WHEAT): Puccinia recondita on wheat; for disease control grading, VENTURIA INAEQUALIS (APPLE): Venturia inaequalis on apple; for disease control grading, […] (VINE): […] on vine
[2] = tested on: Erysiphe graminis; experiment: Foliar fungal disease test on Erysiphe graminis, plants inoculated 24 hours before treatment (Table V); type: in vivo; design: key: 4: no disease; 3: trace −5% of disease on untreated plants; 6-25% of disease on untreated plants; 1: 26-59% of disease on untreated plants; 60-100% of disease on untreated plants; conditions: plants inoculated 24 hours before treatment

| Compound | disease control grading, CERCOSPORA ARACHIDICOLA (PEANUT) [1] | disease control grading, P[…] (RICE) [1] | disease control grading, PH[…] (TOMATO) [1] | disease control grading, PUCCINIA RECONDITA (WHEAT) [1] | disease control grading, VENTURIA INAEQUALIS (APPLE) [1] | disease control grading, […] (VINE) [1] | disease control grading, ERYSIPHE GRAMINIS (BARLEY) [2] |
| --- | --- | --- | --- | --- | --- | --- | --- |
| CO/C=C(/C(=O)OC)c1ccccc1COc1cccc(OC)c1 [160 (Table I)] | 3 (trace −5% of disease on untreated plants) | 3 (trace −5% of disease on untreated plants) | 4 | 4 | 4 | 4 | 4 |
| CO/C=C(/C(=O)OC)c1ccccc1COc1cccc([N+](=O)[O-])c1 [161 (Table I)] | 3 (trace −5% of disease on untreated plants) | 0 (60-100% of disease on untreated plants) | 1 (26-59% of disease on untreated plants) | 3 (trace −5% of disease on untreated plants) | 4 | 4 | 3 (trace −5% of disease on untreated plants) |
| CO/C=C(/C(=O)OC)c1ccccc1COc1cc(Cl)cc(Cl)c1 [162 (Table I)] | 4 | 2 (6-25% of disease on untreated plants) | 3 (trace −5% of disease on untreated plants) | 4 | 4 | 4 | 4 |
| CO/C=C(/C(=O)OC)c1ccccc1COc1cccc(Cl)c1Cl [163 (Table I)] | 4 | 2 (6-25% of disease on untreated plants) | 4 | 4 | 4 | 4 | 4 |
| CO/C=C(/C(=O)OC)c1ccccc1COc1cccc(C)c1 [164 (Table I)] | 4 | 4 | 3 (trace −5% of disease on untreated plants) | 4 | 4 | 4 | 4 |
| CO/C=C(/C(=O)OC)c1ccccc1COc1cccc(Oc2ccccc2)c1 [165 (Table I)] | 0 (60-100% of disease on untreated plants) | 4 | 4 | 4 | 0 (60-100% of disease on untreated plants) | 4 | 4 |
| CO/C=C(/C(=O)OC)c1ccccc1COc1cccc(Br)c1 [166 (Table I)] | 4 | 4 | 4 | 4 | 4 | 4 | 4 |
| CO/C=C(/C(=O)OC)c1ccccc1COc1cc(Cl)cc(OC)c1 [167 (Table I)] | 3 (trace −5% of disease on untreated plants) | 4 | 4 | 4 | 4 | 4 | 4 |
| CO/C=C(/C(=O)OC)c1ccccc1COc1cccc(C(F)(F)F)c1 [168 (Table I)] | 3 (trace −5% of disease on untreated plants) | 4 | 4 | 4 | 4 | 4 | 4 |
| CCN(CC)c1cccc(OCc2ccccc2/C(=C\OC)C(=O)OC)c1 [169 (Table I)] | 4 | 0 (60-100% of disease on untreated plants) | 4 | 3 (trace −5% of disease on untreated plants) | 4 | 4 | 1 (26-59% of disease on untreated plants) |
| CCOc1cc(OCc2ccccc2/C(=C\OC)C(=O)OC)ccc1OC [170 (Table I)] | 4 | 3 (trace −5% of disease on untreated plants) | 4 | 0 (60-100% of disease on untreated plants) | 4 | 4 | 4 |
| CO/C=C(/C(=O)OC)c1ccccc1COc1cccc(O)c1 [171 (Table I)] | 3 (trace −5% of disease on untreated plants) | 0 (60-100% of disease on untreated plants) | 3 (trace −5% of disease on untreated plants) | 3 (trace −5% of disease on untreated plants) | 4 | 4 | 1 (26-59% of disease on untreated plants) |
| CO/C=C(/C(=O)OC)c1ccccc1COc1cccc(-c2cccc(OC)c2)c1 [172 (Table I)] | 4 | 0 (60-100% of disease on untreated plants) | 4 | 4 | 4 | 4 | 4 |
| CO/C=C(/C(=O)OC)c1ccccc1COc1cccc(Oc2ccccc2OC)c1 [173 (Table I)] | 4 | 0 (60-100% of disease on untreated plants) | 4 | 4 | 4 | 4 | 3 (trace −5% of disease on untreated plants) |
| CO/C=C(/C(=O)OC)c1ccccc1COc1cc(C(F)(F)F)ccn1 [174 (Table I)] | 4 | 0 (60-100% of disease on untreated plants) | 4 | 4 | 4 | 4 | 4 |
| CO/C=C(/C(=O)OC)c1ccccc1COc1cccc(C=O)c1 [175 (Table I)] | 1 (26-59% of disease on untreated plants) | 0 (60-100% of disease on untreated plants) | 4 | 3 (trace −5% of disease on untreated plants) | 4 | 4 | 1 (26-59% of disease on untreated plants) |
| CO/C=C(/C(=O)OC)c1ccccc1COc1cccc(Br)n1 [176 (Table I)] | – | 4 | 4 | 4 | 4 | 4 | 4 |
| CO/C=C(/C(=O)OC)c1ccccc1COc1cccc(C(F)(F)F)n1 [177 (Table I)] | – | 4 | 4 | 4 | 4 | 4 | 4 |
| CO/C=C(/C(=O)OC)c1ccccc1COc1cccc(CO)c1 [178 (Table I)] | 3 (trace −5% of disease on untreated plants) | 2 (6-25% of disease on untreated plants) | 2 (6-25% of disease on untreated plants) | 3 (trace −5% of disease on untreated plants) | 0 (60-100% of disease on untreated plants) | 4 | 0 (60-100% of disease on untreated plants) |
| CO/C=C(/C(=O)OC)c1ccccc1COc1cccc(/C=N/c2ccccc2)c1 [179 (Table I)] | 0 (60-100% of disease on untreated plants) | 2 (6-25% of disease on untreated plants) | 4 | 3 (trace −5% of disease on untreated plants) | 0 (60-100% of disease on untreated plants) | 4 | 0 (60-100% of disease on untreated plants) |
